Assays:
Assay in all cases: relative viability (nuclei count vs DMSO), 5 days (fraction); higher = more cells survive
kb NB 142-70 + Alpelisib = compound: C1CSC2=C(C(=O)N1)SC3=C2C=C(C=C3)O [kb NB 142-70] + Cc1nc(NC(=O)N2CCC[C@H]2C(N)=O)sc1-c1ccnc(C(C)(C)C(F)(F)F)c1 [Alpelisib] (partner 2 µM)
How it was run: (§1)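 The day after seeding in 1536-well plates, lung cancer cell lines were treated by pin tool with a single drug, or with a fixed anchor-drug dose together with five library-drug doses (not always all listed) in √10 steps. After 5 days, a combined fix-and-stain solution (final 0.05% Triton X-100, 1% formaldehyde, 1 ug/ml Hoechst) was added. Nuclei counted on 4× images gave relative viability as treated counts over vehicle counts, reported as the median of duplicate plates.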

[1] = compound: NCC(=O)Nc1ccc(-n2nc(C(F)(F)F)cc2-c2ccc3c(ccc4ccccc43)c2)cc1 + Nc1ncn([C@H]2C[C@H](O)[C@@H](CO)O2)c(=O)n1 [Decitabine] (partner 2 µM)
How it was run: as §1

[2] = compound: C1CSC2=C(C(=O)N1)SC3=C2C=C(C=C3)O [kb NB 142-70] + CC(=O)c1c(C)c2cnc(Nc3ccc(N4CCNCC4)cn3)nc2n(C2CCCC2)c1=O [Palbociclib] (partner 0.5 µM)
How it was run: as §1

[3] = compound: NCC(=O)Nc1ccc(-n2nc(C(F)(F)F)cc2-c2ccc3c(ccc4ccccc43)c2)cc1 + NC(=O)Nc1cc(-c2cccc(F)c2)sc1C(=O)N[C@H]1CCCNC1 [AZD7762] (partner 0.2 µM)
How it was run: as §1

Cell Line	relative viability (kb NB 142-70 + Alpelisib; first compound 0.1 µM)	relative viability (kb NB 142-70 + Alpelisib; first compound 1 µM)	relative viability (kb NB 142-70 + Alpelisib; first compound 3.162 µM)	relative viability ([1]; first compound 0.02 µM)	relative viability ([1]; first compound 0.06325 µM)	relative viability ([1]; first compound 0.2 µM)	relative viability ([1]; first compound 0.6325 µM)	relative viability ([1]; first compound 2 µM)	relative viability ([2]; first compound 0.1 µM)	relative viability ([2]; first compound 1 µM)	relative viability ([2]; first compound 3.162 µM)	relative viability ([3]; first compound 0.02 µM)	relative viability ([3]; first compound 0.06325 µM)	relative viability ([3]; first compound 0.2 µM)	relative viability ([3]; first compound 0.6325 µM)	relative viability ([3]; first compound 2 µM)
NCI-H1299	1.02	1.11	1.17													
EBC-1	0.864	0.798	0.491													
NCI-H2347	0.963	1.09	1.01	0.661	0.599	0.74	0.615	0.599	0.438	0.439	0.488	0.719	0.696	0.756	0.817	0.75
NCI-H1993	0.761	0.654	0.555	0.558	0.634	0.663	0.611	0.64	0.688	0.583	0.638	0.957	0.933	0.706	0.839	0.784
NCI-H322M	0.813	0.815	0.882	0.723	0.732	0.716	0.637	0.724	0.541	0.511	0.505	0.569	0.711	0.578	0.636	0.681
NCI-H838	1.02	1.06	0.91	0.489	0.494	0.504	0.441	0.335	0.203	0.219	0.188	1.01	0.922	0.986	0.913	0.957
HARA	0.786	0.726	0.516	0.581	0.611	0.537	0.654	0.528	0.216	0.327	0.259	0.227	0.429	0.304	0.392	0.473
NCI-H2087	1.16	1.22	0.858	0.249	0.245	0.246	0.282	0.251	0.282	0.252	0.215	1.29	1.24	1.31	1.36	1.23
NCI-H1437	1.01	0.999	0.875	0.563	0.576	0.634	0.616	0.547	0.337	0.297	0.279	0.974	1.21	1.13	1.1	1.11
NCI-H1648				0.577	0.515	0.479	0.549	0.445	0.276	0.275	0.206	0.893	0.598	0.74	0.663	0.588
NCI-H1792	0.778	0.732	0.891	0.705	0.569	0.479	0.605	0.582	0.586	0.722	0.836	0.725	0.772	0.759	0.822	0.682
ChaGo-K-1				0.55	0.526	0.506	0.522	0.549	0.872	0.803	0.838	0.81	0.869	0.807	0.913	0.897
NCI-H650	1.13	1.19	0.942	0.34	0.295	0.443	0.315	0.367	0.362	0.422	0.394	0.988	1.12	1.08	1.02	1.05
COR-L23	0.757	0.808	0.282	0.437	0.434	0.475	0.413	0.309	0.324	0.317	0.186					
COR-L 105	1.11	0.989	1.03	0.726	0.588	0.698	0.635	0.653	0.432	0.369	0.433					
NCI-H596	0.454	0.483	0.347	1.13	1.01	1.07	0.995	1.12				1.14	1.03	0.984	1.28	1.08
NCI-H2023	0.619	0.602	0.531	0.229	0.211	0.23	0.209	0.219	0.389	0.379	0.257					
NCI-H520	0.728	0.961	0.513	0.562	0.546	0.505	0.449	0.587	0.234	0.21	0.164					
A549	0.714	0.654	0.14	0.263	0.249	0.2	0.257	0.31								
NCI-H1563	0.963	0.967	0.932													
NCI-H2009	1.04	1.2	0.72	0.337	0.457	0.409	0.349	0.408	0.286	0.304	0.285					
NCI-H522				0.638	0.619	0.673	0.681	0.608	0.988	0.789	0.77	0.609	1.09	0.815	0.888	0.828
IA-LM	0.795	0.759	0.756													
SK-LU-1	0.961	0.873	0.307	0.6	0.658	0.734	0.615	0.633	0.404	0.412	0.359					
NCI-H1703	0.391	0.362	0.444									0.127		0.122	0.124	0.142
SW 900				0.43	0.452	0.607	0.406	0.444	0.553	0.463	0.458	0.635	0.558	0.701	0.659	0.655
